Structures are written as SMILES. Where “and” joins values, the source holds several entries; their conditions need not be identical. Equal entries are not always repeated. Where two headings read alike, the source gives them in different places.

These results are taken from patent US20020137731A1, “Combination of radiation and vitamin D3 analogs for the treatment of cancer” (priority 2000, published 2002).

For one data set, the system named is MCF-7 breast tumor cells. The following applies: Sundaram and Gewirtz, 1999; Sundaram et al., 2000; cited from earlier work.
Data set [1] has as its system MCF-7 cells. The conditions noted are these: previous work, literature; cited from earlier work.
The subject of data set [2] is MCF-7 cells. Kind of data set: TUNEL assay of DNA fragmentation (apoptotic cell death). The data set is classed as cell-based, human. The following applies: for DNA fragmentation indicative of apoptotic cell death: agent alone. From the text: The method of Gavrielli et al. (1992) was utilized as an independent assessment of apoptotic cell death in combined cytospins containing both adherent and non-adherent cells. The cells were fixed and the fragmented DNA in cells undergoing apoptosis was detected using the In Situ Cell Death detection Kit (Boehringer-Manheim). In this assay, the fragmented DNA in individual cells was end labeled using fluorescein-dUTP at strand breaks by the enzyme terminal transferase. The slides were then washed, mounted in Vectashield and photographed using a Nikon fluorescent microscope. For quantitation, fluorescent cells were scored positive for DNA fragmentation.

Data set [3] concerns MCF-7 cells. Kind of data set: Cell morphology (Wright-Giemsa stain, light microscopy). The data set is classed as cell-based, human. The conditions noted are these: for apoptotic cell morphology: agent alone; for apoptotic cell morphology (dark and shrunken cells): 72 h after exposure. The text has this:
Seventy-two hours after adriamycin or irradiation exposure, cells were washed and cytocentrifuged onto microscopic slides. The cells were stained Wright-Giesma stain and photographed under a Nikon light microscope.

Data set [4] concerns MCF-7 cells. In words: Viable cell number by trypan blue exclusion. The data set is classed as cell-based, human. On the procedure:
(§1) All cell lines were grown from frozen stocks in basal RPMI 1640 medium supplemented with 10% fetal calf serum, 2 mM L-glutamine, penicillin/streptomycin at 37° C. under a humidified, 5% CO2 atmosphere. All studies were conducted using approximately 10^4 cells/cm^2 at day 0 with the use of time-equivalent and concentration-equivalent controls. The results shown are averages of two to three studies.
The response of cells treated with adriamycin (1 μM) for 2 hr and irradiation (10 Gy) was assessed 72 hr after treatment by trypan blue exclusion. The response of cells treated with ILX 23-7553 (200 nM) for 72 hr was evaluated 72 hr after removal of ILX 23-7553. To evaluate the combined effects of adriamycin or irradiation with ILX 23-7553 (200 nM), cells were treated with ILX 23-7553 for 72 hr prior to adriamycin (1 μM) or irradiation (10 Gy) and allowed to grow for an additional 72 hr. Cells were harvested using trypsin, stained with 0.4% trypan blue and trypan blue negative cells were counted under phase contrast microscopy.

Data set [5] has as its system MCF-7 cells. Kind of data set: Clonogenic analysis (colony forming assay) with statistical model of additivity. The data set is classed as cell-based, human. The conditions noted are these: for Predicted Response Under Additivity (Surviving Fraction): statistical model of additivity. How it is done:
as §1
MCF-7 cells were treated with ILX 23-7553 (200 nM), adriamycin or radiation alone and with ILX 23-7553 preceding various doses of adriamycin or radiation. For analysis of additivity, MCF-7 cells were treated with various doses of ILX 23-7553 (0-200 nM) in combination with a single dose of either adriamycin (20 nM) or irradiation (2.5 Gy). Cells were trypsinized immediately following adriamycin or radiation under sterile conditions and plated in triplicate in 6 well cell culture plates at approximately 1000 cells for each condition. After 7-10 days, the cells were fixed with 100% methanol, air-dried for 1-2 hr and stained with […] crystal violet. Groups of 50 or more cells were counted as colonies.
The predicted responses for the colony forming assay were determined using the following model: y=exp(B0+B1x1+B2x2) where y is the predicted response, x1 is either dose of irradiation ([…]) or adriarnycin (nM), x2 is the dose of ILX 23-7553 (nM), B0 is an unknown parameter associated with the intercept, B1 is an unknown parameter associated with the slope of x1 and B2 is an unknown parameter associated with the slope of x2. Parameter estimates were found using a generalized least squares criterion for nonlinear models. A constant variance was assumed across the dose range of all four compounds. The Gauss-Newton iterative algorithm was used in PROC NLIN in SAS (version 6.12) to find parameter estimates. The compare the observed response at each combination point to that predicted under the hypotheses of additivity, a prediction interval was used following Gennings et al. (1997). An overall test for additivity (Radford et al., 1994) was based on testing they hypothesis that the mean response under the hypothesis of additivity is the true mean response. The estimated responses under the hypothesis of additivity were provided by the additivity model. The estimated responses for the true means were provided by the sample means at each mixture group.

Setting [6] is: ILX 23-7553 pretreatment followed by radiation.

Consider `C=C1/C(=C\C=C2/CCC[C@]3(C)[C@@H]([C@H](C)/C=C/C=C/C(O)(CC)CC)CC[C@@H]23)C[C@@H](O)C[C@@H]1O` [EB 1089], for which the “effect on the response of MCF-7 breast tumor cells to adriamycin and irradiation” value with MCF-7 breast tumor cells is on record as “enhances”.

On to `COc1cccc2c1C(=O)c1c(O)c3c(c(O)c1C2=O)C[C@@](O)(C(=O)CO)C[C@@H]3O[C@H]1C[C@H](N)[C@H](O)[C@H](C)O1` [adriamycin, reference compound], for which the “induction of apoptotic cell death” value with MCF-7 cells [1] is “neither adriamycin nor irradiation induces apoptotic cell death”. Also, the “DNA fragmentation indicative of apoptotic cell death” value with MCF-7 cells [2] is on record as “not induced”. The apoptotic cell morphology result in the data set on MCF-7 cells [3] is listed as “did not produce cells with this apoptotic morphology”. Moreover, the cytotoxicity at 1 µM in the data set with MCF-7 cells [4] (Homo sapiens, MCF7, adriamycin 1 μM (2 hr acute exposure) alone, counted 72 h after, vs untreated controls, read-out: decrease in viable cell number) is 74%.

Regarding `C=C1/C(=C\C=C2/CCC[C@]3(C)C([C@H](C)CC#CC(C)(C)O)=CC[C@@H]23)C[C@@H](O)C[C@@H]1O` [ILX 23-7553], the “percent TUNEL-positive cells (cells with DNA fragmentation)” value is 15% and 14% in the data set with MCF-7 cells [2] (ILX 23-7553 pretreatment followed by adriamycin); 7% in the data set on MCF-7 cells [2] (ILX 23-7553 pretreatment followed by irradiation). Moreover, the “DNA fragmentation indicative of apoptotic cell death” value in the data set with MCF-7 cells [2] was “not induced”. Further, in the data set with MCF-7 cells [5] (200 nM ILX 23-7553 pretreatment for 72 h vs adriamycin alone), the “fold decrease in adriamycin dose required to reduce clonogenic survival by 50%” value is ~2.5 fold and 2 fold. Further, the “fold reduction in irradiation dose required to reduce clonogenic survival by 50%” value in the data set with MCF-7 cells [5] (200 nM ILX 23-7553 pretreatment for 72 h vs irradiation alone) was 4 fold. In addition, the “Observed Mean Response (Surviving Fraction)” value with MCF-7 cells [5] (Adr 1 nM, ILX 200 nM) was determined as 0.67; in the data set with MCF-7 cells [5] (Adr 5 nM, ILX 200 nM), 0.58; with MCF-7 cells [5] (Adr 10 nM, ILX 200 nM), 0.52; with MCF-7 cells [5] (Adr 20 nM, ILX 50 nM) it was 0.58; in the data set on MCF-7 cells [5] (Adr 20 nM, ILX 100 nM) it was 0.50; in the data set with MCF-7 cells [5] (Adr 20 nM, ILX 200 nM) it was 0.46. For the same molecule, the “Observed Mean Response (Surviving Fraction)” value with MCF-7 cells [5] (Adr 100 nM, ILX 200 nM) worked out at 0.24; in the data set with MCF-7 cells [5] (IR 0.5 Gy, ILX 200 nM), 0.34; with MCF-7 cells [5] (IR 1.0 Gy, ILX 200 nM), 0.27; with MCF-7 cells [5] (IR 2.5 Gy, ILX 50 nM), 0.23; in the data set on MCF-7 cells [5] (IR 2.5 Gy, ILX 200 nM), 0.20; in the data set with MCF-7 cells [5] (IR 5.0 Gy, ILX 200 nM), 0.13. For the same molecule, the “Predicted Response Under Additivity (Surviving Fraction)” value was 0.53 with MCF-7 cells [5] (Adr 1 nM, ILX 200 nM); 0.51 in the data set on MCF-7 cells [5] (Adr 5 nM, ILX 200 nM); 0.49 in the data set with MCF-7 cells [5] (Adr 10 nM, ILX 200 nM); 0.63 in the data set on MCF-7 cells [5] (Adr 20 nM, ILX 50 nM); 0.56 with MCF-7 cells [5] (Adr 20 nM, ILX 100 nM); 0.44 with MCF-7 cells [5] (Adr 20 nM, ILX 200 nM). For the same molecule, the “Predicted Response Under Additivity (Surviving Fraction)” value in the data set on MCF-7 cells [5] (Adr 100 nM, ILX 200 nM) is reported as 0.20; in the data set on MCF-7 cells [5] (IR 0.5 Gy, ILX 200 nM) it was 0.51; with MCF-7 cells [5] (IR 1.0 Gy, ILX 200 nM) it was 0.41; in the data set with MCF-7 cells [5] (IR 2.5 Gy, ILX 50 nM), 0.29; in the data set on MCF-7 cells [5] (IR 2.5 Gy, ILX 200 nM), 0.22; with MCF-7 cells [5] (IR 5.0 Gy, ILX 200 nM), 0.08. Besides, the “dose of irradiation required to produce a 50% decrease in clonogenic survival” value in the data set on MCF-7 cells [5] (after 200 nM ILX 23-7553 pretreatment (irradiation alone: 1 Gy)) came to 0.25 Gy. In the data set with MCF-7 cells [5] (colony forming assays, observed vs predicted surviving fractions, p=0.196), the “type of interaction between ILX 23-7553 and irradiation (additive vs synergistic)” value was “additively”. Moreover, in the data set with MCF-7 cells [5] (colony forming assays, observed vs predicted surviving fractions, p=0.461), the “type of interaction between ILX 23-7553 and adriamycin (additive vs synergistic)” value is “additively”. The “apoptotic cell morphology (dark and shrunken cells)” value with MCF-7 cells [3] (ILX 23-7553 in combination with adriamycin) and in the data set with MCF-7 cells [3] (ILX 23-7553 in combination with irradiation) was “observed” throughout. In addition, the apoptotic cell morphology result in the data set with MCF-7 cells [3] is reported as “did not produce cells with this apoptotic morphology”. The cytotoxicity at 0.2 µM in the data set with MCF-7 cells [4] (Homo sapiens, MCF7, 72 h, ILX 23-7553 200 nM for 72 h alone, counted 72 h after removal, vs untreated controls, read-out: decrease in viable cell number) was 60%; in the data set with MCF-7 cells [4] (Homo sapiens, MCF7, ILX 23-7553 200 nM 72 h pretreatment followed by 10 Gy ionizing radiation, counted 72 h after, read-out: decrease in viable cell number), 93%; in the data set with MCF-7 cells [4] (Homo sapiens, MCF7, ILX 23-7553 200 nM 72 h pretreatment followed by adriamycin 1 μM, counted 72 h after, read-out: decrease in viable cell number), 97%. Further, the “decrease in viable cell numbers as compared to ILX 23-7553 alone” value with MCF-7 cells [4] (setting [6]) was determined as 66%. Moreover, the “decrease in viable cell numbers as compared to radiation alone” value with MCF-7 cells [4] (setting [6]) was 24%.
